{"source": "patent US4030886A", "about": "“Saturation analysis” (The Radiochemical Centre Limited, priority 1973, dated 1977)", "system": "antiserum raised in rabbit against estriol-6-CMO-BSA", "details": "4 ng label, antiserum 1:200", "experimental": "Into each assay tube was dispensed 0.1M phosphate buffer containing 5% human serum (pH 7.0; 200μl), antiserum raised in rabbit against estriol-6-CMO-BSA and diluted 1:200 in 0.1M Phosphate buffer containing 5% human serum (200μl), and selenomethionine-Se75 conjugate of estriol-6-CMO (4 ng; 400 mCi/m mol). Standard amounts of estriol (1.25 ng, 10 ng and 20 ng) in human serum were added to each assay tube; to one tube was added buffer instead of antiserum as a blank. The contents of each tube were mixed and incubated at room temperature for one hour. Ammonium sulphate solution was then added (5.4g (NH4)2 SO4 = 10 ml H2 O; 500 μl) and after mixing, the solutions were centrifuged. The supernatant was removed and the precipitate counted in a gamma counter. The percentage of total counts bound to the precipitate was calculated.", "note": "Like-named read-outs stand apart in the source and are kept apart here."}
{"substance": "selenomethionine-Se75 conjugate of estriol-6-carboxymethyloxime", "values": [{"measurement": "% of total counts bound minus blank", "setting": "0 ng estriol added", "result": 59.1, "unit": "%"}, {"measurement": "% of total counts bound minus blank", "setting": "1.25 ng estriol added", "result": 55.3, "unit": "%"}, {"measurement": "% of total counts bound minus blank", "setting": "10 ng estriol added", "result": 44.3, "unit": "%"}, {"measurement": "% of total counts bound minus blank", "setting": "20 ng estriol added", "result": 39.0, "unit": "%"}]}
